Assay results as given in patent US12441726B2, “Compounds and uses thereof” (Foghorn Therapeutics Inc., priority 2020, dated 2025).

Columns and labels:
BRM = BRM (Homo sapiens, UniProt P51531); experiment: ATPase catalytic activity assay (ADP-Glo), BRM; conditions: 30 nM BRM, 400 μM ATP; for IC50: BRM ATPase: IC50 (uM)
BRG-1 = BRG-1 (Homo sapiens, UniProt P51532); experiment: ATPase catalytic activity assay (ADP-Glo), BRG-1; conditions: for Emax: 1 h, read-out: BRG1 Max % Inhibition, ADP-Glo, 30 nM BRG-1, 400 μM ATP
Chain of BRG-1 (P51532 whole entry): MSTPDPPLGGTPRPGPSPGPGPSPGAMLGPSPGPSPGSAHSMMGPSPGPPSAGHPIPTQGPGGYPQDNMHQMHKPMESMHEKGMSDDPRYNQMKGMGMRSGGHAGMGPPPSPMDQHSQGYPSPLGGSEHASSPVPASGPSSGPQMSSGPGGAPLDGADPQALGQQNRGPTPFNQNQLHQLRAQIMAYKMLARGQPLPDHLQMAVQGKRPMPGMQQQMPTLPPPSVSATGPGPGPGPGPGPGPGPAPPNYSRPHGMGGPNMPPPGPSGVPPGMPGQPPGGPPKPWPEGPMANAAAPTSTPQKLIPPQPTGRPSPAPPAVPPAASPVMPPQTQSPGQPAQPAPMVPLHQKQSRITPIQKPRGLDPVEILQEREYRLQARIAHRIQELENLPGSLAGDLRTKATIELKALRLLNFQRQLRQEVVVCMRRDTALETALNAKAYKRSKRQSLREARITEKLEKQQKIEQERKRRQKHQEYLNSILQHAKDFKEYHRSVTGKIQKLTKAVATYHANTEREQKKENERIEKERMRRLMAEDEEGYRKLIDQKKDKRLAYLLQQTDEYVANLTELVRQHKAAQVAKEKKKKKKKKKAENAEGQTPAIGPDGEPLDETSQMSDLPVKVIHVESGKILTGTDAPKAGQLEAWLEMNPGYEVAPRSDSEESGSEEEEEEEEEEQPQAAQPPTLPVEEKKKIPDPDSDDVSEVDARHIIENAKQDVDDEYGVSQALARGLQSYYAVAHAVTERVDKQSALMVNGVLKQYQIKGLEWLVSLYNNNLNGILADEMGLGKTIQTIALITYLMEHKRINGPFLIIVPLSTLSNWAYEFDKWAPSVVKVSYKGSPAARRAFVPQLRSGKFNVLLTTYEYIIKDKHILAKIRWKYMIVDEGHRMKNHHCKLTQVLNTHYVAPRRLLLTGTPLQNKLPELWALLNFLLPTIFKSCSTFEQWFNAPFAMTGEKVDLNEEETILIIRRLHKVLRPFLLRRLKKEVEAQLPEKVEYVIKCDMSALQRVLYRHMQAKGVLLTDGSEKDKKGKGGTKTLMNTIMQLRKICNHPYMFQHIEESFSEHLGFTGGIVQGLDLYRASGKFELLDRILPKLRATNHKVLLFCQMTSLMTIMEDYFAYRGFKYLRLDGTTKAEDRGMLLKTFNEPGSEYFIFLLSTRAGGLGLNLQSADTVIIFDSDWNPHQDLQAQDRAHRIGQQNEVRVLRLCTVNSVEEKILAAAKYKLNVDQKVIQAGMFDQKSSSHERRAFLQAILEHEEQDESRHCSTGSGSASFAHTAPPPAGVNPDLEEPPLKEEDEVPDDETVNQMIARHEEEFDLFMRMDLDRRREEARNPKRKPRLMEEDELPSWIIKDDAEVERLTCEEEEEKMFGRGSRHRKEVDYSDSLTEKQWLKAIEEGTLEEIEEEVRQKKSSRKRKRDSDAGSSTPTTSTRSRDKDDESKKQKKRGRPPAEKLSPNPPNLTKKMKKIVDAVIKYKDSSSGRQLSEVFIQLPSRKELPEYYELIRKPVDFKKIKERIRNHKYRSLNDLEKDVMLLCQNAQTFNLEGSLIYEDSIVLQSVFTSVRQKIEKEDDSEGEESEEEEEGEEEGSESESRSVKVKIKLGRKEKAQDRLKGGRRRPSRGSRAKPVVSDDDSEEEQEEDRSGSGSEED

Chain of BRM (P51531 whole entry): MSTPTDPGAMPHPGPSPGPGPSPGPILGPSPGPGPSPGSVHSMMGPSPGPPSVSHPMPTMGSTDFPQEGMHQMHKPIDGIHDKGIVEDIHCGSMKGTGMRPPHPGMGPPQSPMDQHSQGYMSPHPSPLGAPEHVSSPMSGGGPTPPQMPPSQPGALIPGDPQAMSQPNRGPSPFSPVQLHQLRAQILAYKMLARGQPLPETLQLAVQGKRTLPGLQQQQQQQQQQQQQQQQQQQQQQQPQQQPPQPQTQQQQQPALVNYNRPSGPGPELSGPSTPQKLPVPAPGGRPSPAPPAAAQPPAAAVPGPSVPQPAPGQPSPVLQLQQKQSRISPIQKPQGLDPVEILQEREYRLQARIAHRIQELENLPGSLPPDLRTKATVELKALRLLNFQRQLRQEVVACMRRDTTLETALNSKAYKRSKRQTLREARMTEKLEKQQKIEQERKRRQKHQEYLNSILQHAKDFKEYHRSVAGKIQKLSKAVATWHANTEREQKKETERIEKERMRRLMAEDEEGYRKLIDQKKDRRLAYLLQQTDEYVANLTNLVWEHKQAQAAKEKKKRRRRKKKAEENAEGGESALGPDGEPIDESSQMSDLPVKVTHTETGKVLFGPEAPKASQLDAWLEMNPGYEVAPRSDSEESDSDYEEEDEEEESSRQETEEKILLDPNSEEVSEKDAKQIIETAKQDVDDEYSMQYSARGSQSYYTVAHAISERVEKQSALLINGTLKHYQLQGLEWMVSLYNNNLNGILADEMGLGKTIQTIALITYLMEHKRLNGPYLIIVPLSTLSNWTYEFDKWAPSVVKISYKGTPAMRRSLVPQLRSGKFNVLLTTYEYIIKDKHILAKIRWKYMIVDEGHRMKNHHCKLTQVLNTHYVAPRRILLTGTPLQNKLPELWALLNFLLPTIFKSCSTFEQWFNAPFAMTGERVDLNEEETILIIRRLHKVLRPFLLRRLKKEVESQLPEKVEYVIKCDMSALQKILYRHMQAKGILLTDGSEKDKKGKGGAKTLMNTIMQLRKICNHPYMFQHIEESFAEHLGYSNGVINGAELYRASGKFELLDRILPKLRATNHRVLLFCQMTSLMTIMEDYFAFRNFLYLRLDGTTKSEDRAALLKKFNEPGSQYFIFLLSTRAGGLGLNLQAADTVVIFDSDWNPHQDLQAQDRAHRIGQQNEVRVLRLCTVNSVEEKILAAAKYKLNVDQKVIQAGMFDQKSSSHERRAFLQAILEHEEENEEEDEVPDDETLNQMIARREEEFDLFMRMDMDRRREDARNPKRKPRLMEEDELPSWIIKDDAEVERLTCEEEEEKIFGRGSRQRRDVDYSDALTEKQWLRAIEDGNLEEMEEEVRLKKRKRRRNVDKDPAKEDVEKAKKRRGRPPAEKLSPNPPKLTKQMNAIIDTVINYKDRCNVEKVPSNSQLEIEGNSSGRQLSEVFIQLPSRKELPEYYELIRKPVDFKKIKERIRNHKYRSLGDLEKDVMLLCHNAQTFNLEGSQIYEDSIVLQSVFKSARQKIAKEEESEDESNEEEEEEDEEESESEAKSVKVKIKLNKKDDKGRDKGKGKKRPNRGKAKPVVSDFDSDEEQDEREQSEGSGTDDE

SMILES | BRM Max % Inhibition (BRM) [%] | IC50 (BRM) [µM] | IC50 (BRG-1) [nM] | Emax (BRG-1) [%]
C[C@@]1(C#N)COCc2ccc(C(=O)NCc3cc4nc(-c5ccccn5)sc4cn3)cc21 [Compound 440] | 88 | 0.1 to 0.5 | > 1000 | 40
C[C@@]1(C#N)COCc2ccc(C(=O)NCc3cc4nc(-c5cncc(N6CCC6)c5)ccc4cn3)cc21 [Compound 441] | 97 | 0.1 to 0.5 | 500 to 1000 | 80
COc1cc(-c2ccc3cnc(CNC(=O)c4ccc5c(c4)[C@](C)(C#N)COC5)cc3n2)nc(N2CCC2)n1 [Compound 442] | 96 | < 0.1 | 500 to 1000 | 75
Cn1ccc2nc(-c3ccc4cnc(CNC(=O)c5ccc6c(c5)[C@](C)(C#N)COC6)cc4n3)sc2c1=O [Compound 443] | 96 | 0.1 to 0.5 | 100 to 500 | 82
Cc1nccc(-c2ccc3cnc(CNC(=O)c4ccc5c(c4)[C@](C)(C#N)COC5)cc3n2)n1 [Compound 444] | 93 | 0.1 to 0.5 | 500 to 1000 | 67
COC1CN(C(=O)c2cccc(-c3ccc4cnc(CNC(=O)c5ccc6c(c5)[C@](C)(C#N)COC6)cc4n3)c2)C1 [Compound 445] | 96 | 0.1 to 0.5 | 500 to 1000 | 72
COc1cc(-c2ccc3cnc(CNC(=O)c4ccc5c(c4)[C@](C)(C#N)COC5)cc3n2)c(F)cn1 [Compound 446] | 87 | 0.1 to 0.5 | > 1000 | 44
C[C@@]1(C#N)COCc2ccc(C(=O)NCc3cc4nc(-c5ccn6nccc6n5)ccc4cn3)cc21 [Compound 447] | 95 | 0.1 to 0.5 | 500 to 1000 | 84
Cn1ncc2ccc(-c3ccc4cnc(CNC(=O)c5ccc6c(c5)[C@](C)(C#N)COC6)cc4n3)cc2c1=O [Compound 448] | 97 | < 0.1 | 100 to 500 | 93
C[C@@]1(C#N)COCc2ccc(C(=O)NCc3cc4nc(-c5cc(F)c(=O)n(C(F)F)c5)ccc4cn3)cc21 [Compound 449] | 92 | 0.1 to 0.5 | > 1000 | 50
CNC(=O)c1cc(-c2ccc3cnc(CNC(=O)c4ccc5c(c4)[C@](C)(C#N)COC5)cc3n2)ccn1 [Compound 450] | 96 | 0.1 to 0.5 | 500 to 1000 | 73
C[C@@]1(C#N)COCc2ccc(C(=O)NCc3cc4nc(-c5ccncc5)ccc4cn3)cc21 [Compound 451] | 93 | 0.1 to 0.5 | 500 to 1000 | 58
Cn1ccc2ccc(-c3ccc4cnc(CNC(=O)c5ccc6c(c5)[C@](C)(C#N)COC6)cc4n3)cc2c1=O [Compound 452] | 97 | < 0.1 | 100 to 500 | 98
Cn1ncc2c1CCN(c1ccc3cnc(CNC(=O)c4ccc5c(c4)[C@](C)(C#N)COC5)cc3n1)C2 [Compound 453] | 91 | 0.1 to 0.5 | 500 to 1000 | 61
COc1nn(C)cc1-c1ccc2cnc(CNC(=O)c3ccc4c(c3)[C@](C)(C#N)COC4)cc2n1 [Compound 454] | 97 | < 0.1 | 100 to 500 | 88
Cn1cc2c(n1)CCN(c1ccc3cnc(CNC(=O)c4ccc5c(c4)[C@](C)(C#N)COC5)cc3n1)C2 [Compound 455] | 94 | 0.1 to 0.5 | 500 to 1000 | 75
C[C@@]1(C#N)COCc2ccc(C(=O)NCc3cc4nc(-c5ccc(N6CCC6)nc5)ccc4cn3)cc21 [Compound 456] | 95 | 0.1 to 0.5 | 500 to 1000 | 80
Cn1ncc2c1CN(c1ccc3cnc(CNC(=O)c4ccc5c(c4)[C@](C)(C#N)COC5)cc3n1)CC2 [Compound 457] | 95 | 0.1 to 0.5 | 500 to 1000 | 61
Cn1cc2c(n1)CN(c1ccc3cnc(CNC(=O)c4ccc5c(c4)[C@](C)(C#N)COC5)cc3n1)CC2 [Compound 458] | 95 | 0.1 to 0.5 | 500 to 1000 | 74
C[C@@]1(C#N)COCc2ccc(C(=O)NCc3cc4nc(-c5ccn6nccc6c5)ccc4cn3)cc21 [Compound 459] | 97 | < 0.1 | 100 to 500 | 86
CNC(=O)c1cccc(-c2ccc3cnc(CNC(=O)c4ccc5c(c4)[C@](C)(C#N)COC5)cc3n2)c1F [Compound 460] | 98 | 0.1 to 0.5 | 500 to 1000 | 75
Cn1ncc2c1CN(c1ccc3cnc(CNC(=O)c4ccc5c(c4)[C@](C)(C#N)COC5)cc3n1)C2 [Compound 461] | 93 | 0.1 to 0.5 | 500 to 1000 | 65

SMILES | BRM Max % Inhibition (BRM) [%] | IC50 (BRM) [µM] | IC50 (BRG-1) [nM] | Emax (BRG-1) [%]
COc1c(-c2ccc3cnc(CNC(=O)c4ccc5c(c4)[C@](C)(C#N)COC5)cc3n2)cnn1C [Compound 462] | 93 | 0.1 to 0.5 | 500 to 1000 | 71
C[C@@]1(C#N)COCc2ccc(C(=O)NCc3cc4nc(-c5ccccc5)cnc4cn3)cc21 [Compound 463] | 98 | < 0.1 | 500 to 1000 | 82
CN(C)C(=O)c1cccc(-c2ccc3cnc(CNC(=O)c4ccc5c(c4)[C@](C)(C#N)COC5)cc3n2)n1 [Compound 464] | 88 | 0.1 to 0.5 | > 1000 | 48
CN1CCN(c2cccc(-c3ccc4cnc(CNC(=O)c5ccc6c(c5)[C@](C)(C#N)COC6)cc4n3)n2)CC1 [Compound 465] | 99 | < 0.1 | 100 to 500 | 89
CNC(=O)c1cccc(-c2ccc3cnc(CNC(=O)c4ccc5c(c4)[C@](C)(C#N)COC5)cc3n2)n1 [Compound 466] | 99 | < 0.1 | 500 to 1000 | 79
CNC(=O)c1cc(-c2ccc3cnc(CNC(=O)c4ccc5c(c4)[C@](C)(C#N)COC5)cc3n2)ccc1F [Compound 467] | 99 | < 0.1 | 100 to 500 | 86
COCCNC(=O)c1cccc(-c2ccc3cnc(CNC(=O)c4ccc5c(c4)[C@](C)(C#N)COC5)cc3n2)c1 [Compound 468] | 100 | < 0.1 | 500 to 1000 | 80
C[C@@]1(C#N)COCc2ccc(C(=O)NCc3cc4nc(-c5cccc(C(F)F)n5)ccc4cn3)cc21 [Compound 469] | 98 | < 0.1 | 100 to 500 | 85
C[C@@]1(C#N)COCc2ccc(C(=O)NCc3cc4nc(N5CCCC5=O)ccc4cn3)cc21 [Compound 471] | 96 | 0.1 to 0.5 | > 1000 | 63
CN(C)c1ncc(-c2ccc3cnc(CNC(=O)c4ccc5c(c4)[C@](C)(C#N)COC5)cc3n2)cn1 [Compound 472] | 86 | 0.1 to 0.5 | > 1000 | 51
C[C@@]1(C#N)COCc2ccc(C(=O)NCc3cc4nc(-n5cccn5)ccc4cn3)cc21 [Compound 473] | 96 | 0.1 to 0.5 | > 1000 | 72
CN1CCN(c2cccc(-c3ccc4cnc(CNC(=O)c5ccc6c(c5)[C@](C)(C#N)COC6)cc4n3)c2)CC1 [Compound 474] | 93 | 0.1 to 0.5 | > 1000 | 53
CC(=O)N1CCOc2ccc(-c3ccc4cnc(CNC(=O)c5ccc6c(c5)[C@](C)(C#N)COC6)cc4n3)cc21 [Compound 475] | 99 | < 0.1 | 100 to 500 | 98
CN1C(=O)Cc2ccc(-c3ccc4cnc(CNC(=O)c5ccc6c(c5)[C@](C)(C#N)COC6)cc4n3)cc21 [Compound 476] | 94 | 0.1 to 0.5 | 500 to 1000 | 63
C[C@@]1(C#N)COCc2ccc(C(=O)NCc3cc4nc(-c5cnn(-c6ccncc6)c5)ccc4cn3)cc21 [Compound 477] | 88 | 0.1 to 0.5 | > 1000 | 49
C[C@@]1(C#N)COCc2ccc(C(=O)NCc3cc4nc(-c5ccc(C(F)F)nc5)ccc4cn3)cc21 [Compound 478] | 95 | 0.1 to 0.5 | 500 to 1000 | 63
C[C@@]1(C#N)COCc2ccc(C(=O)NCc3cc4nc(-c5cccc(C6(O)COC6)c5)ccc4cn3)cc21 [Compound 479] | 96 | 0.1 to 0.5 | 500 to 1000 | 72
COc1cc(F)ccc1-c1ccc2cnc(CNC(=O)c3ccc4c(c3)[C@](C)(C#N)COC4)cc2n1 [Compound 481] | 98 | < 0.1 | 100 to 500 | 95
COc1cncc(-c2ccc3cnc(CNC(=O)c4ccc5c(c4)[C@](C)(C#N)COC5)cc3n2)c1 [Compound 482] | 90 | 0.1 to 0.5 | 500 to 1000 | 55
CNC(=O)c1cccc(-c2ccc3cnc(CNC(=O)c4ccc5c(c4)[C@](C)(C#N)COC5)cc3n2)c1 [Compound 483] | 93 | 0.1 to 0.5 | 500 to 1000 | 72
C[C@@]1(C#N)COCc2ccc(C(=O)NCc3cc4nc(-c5cccc(C(=O)N6CCC6)c5)ccc4cn3)cc21 [Compound 484] | 96 | 0.1 to 0.5 | 500 to 1000 | 77
